Data on 16 compounds can be found in patent US8163901B2, “Amide derivatives as ion-channel ligands and pharmaceutical compositions and methods of using the same” (Evotec AG, priority 2008, dated 2012).

What all share (type): cell-based
For test [1], the target named is T1, hVR1 (Homo sapiens, UniProt Q8NER1).
T1 construct: R710-07 (T-REx host cell line); host or cells: T-REx System cell line, called 'human keratinocyte cell line' and 'HEK 293 cells'
Kind of test: Calcium uptake assay (FLIPR), inhibition of capsaicin-induced calcium influx. As for the experimental part: (§1) Functional activity of compounds against the VR1 receptor was determined by measuring changes in intracellular calcium in HEK 293 cells expressing hVR1. Compounds were examined for their ability to inhibit agonist-induced calcium influx. Relative levels of [Ca^2+] were monitored in a 96-well format using a calcium-sensitive fluorescence dye and a FLIPR TETRA, Molecular Devices.
(§2) Cells that express high levels of VR1 were obtained by generation of a cell line from human keratinocytes with heterologous expression of VR1 under control of an inducible promoter. Specifically, cells expressing human VR1 under the control of the human cytomegalovirus immediate-early (CMV) promoter and two tetracycline operator 2 (TetO2) sites were made using the T-REx System (Invitrogen, Carlsbad, Calif., USA). Details and methods concerning this system are published (Hum. Gene Ther. 9, pp. 1939-1950, 1998; Annu. Rev. Microbiol. 48, pp. 345-369, 1994; Mol. Biol. 169, pp. 707-'721, 1983). Human VR1 was subcloned into the T-REx System pcDNA5/TO vector (Invitrogen Cat# V1033-20) which was transfected into the T-REx System human keratinocyte cell line (Invitrogen Cat# R710-07) from which a stable cell line was established which expresses VR1 after induction by exposure to tetracycline or doxycycline (Hum. Gene Ther. 9, pp. 1939-1950, 1998; instructions that come with purchase of products noted above). Cells were maintained in a CO2 incubator (5% CO2) at 37° C. in culture medium containing DMEM with phenol red (Mediatech Cat #: 15-017-CV) supplemented with 10% heat-inactivated Fetal Bovine Serum, 5% Penicillin-streptomycin (Mediatech Cat #: 30-002-CI), 5% Glutamax® (L-Alanyl-L-Glutamine, Mediatech Cat #: 25-015-CI), 200 μg/ml hygromycin (Mediatech #:30-240-CR), 0.5 μg/ml blasticidin (Invitrogen #46-1120)).
(§3) For assay preparation, cells expressing human VR1 as described above were plated in 96-well plates (Becton Dickinson [BD] poly-D-lysine coated 96-well plates, cat #356692) at 55,000 cells per well in culture media (described above) that also contained 1 ug/ml doxycycline. Plated cells were then placed in an incubator (5% CO2) and incubated for 20-26 hours at 37° C., until the cells had grown to near confluency. Media was then aspirated from cells and 50 uL of dye-containing buffer (from Molecular Devices FLIPR Calcium 4 Assay kit, cat# R8141) was added to each well. Cells were then left in the dark at room temperature for 1.5-2 hours. Cell plates were then placed in the FLIPR TETRA (Molecular Devices, CA, USA). Test compounds and agonists were added to wells using the liquid handling capability of the FLIPR TETRA. Calcium responses of the cells were monitored by fluorescence readout of dye signal. Test compounds in saline (130 mM NaCl, 17 g/L sucrose, 1.8 g/L glucose, 8.8 mM HEPES, 3 mM KCl, 0.60 mM MgCl, 1.0 mM CaCl2; adjust to pH 7.4 using NaOH; 0.03% BSA added on the day of the experiment), or vehicle control in saline, were pre-incubated at the desired final concentrations in the dark at room temperature for 2 or 30 minutes with cells already containing the above mentioned dye buffer (dye solution was diluted 1:1 in culture wells with saline containing 2× the final concentration of test compound). […] Another agonist was protons via a low pH solution (saline solution described above plus 10 mM citric acid buffered to pH 5.7 with HCl instead of buffering to a neutral pH with NaOH as done for normal saline). Compounds were tested at various concentration ranges, depending upon potency of compound. After the 2 minute or 30 minute compound pre-treatment, treatment solution was then added to cells by adding a volume of treatment solution equal to the pretreatment solution already on the cells.

The target in test [2] is T1, hVR1. Put plainly: Calcium uptake assay (FLIPR), inhibition of low pH (proton)-induced calcium influx. As to conditions: agonist protons, low pH solution pH 5.7; cells expressing hVR1. As for the experimental part:
as §1, §2
as §3, with “compound). Compound IC50 experiments were run using an agonist concentration at or near the EC50 of the agonist.” for “compound).”, “cells. […]” for “cells.”

Test [3] concerns the target T1, hVR1. Kind of test: Determination of pA2 values against capsaicin stimulation (Ca2+ imaging, Schild analysis). The protocol: Changes in the fluorescence signal (λex=470-495 nm, λem=515-575 nm) are monitored throughout the experiment before agonist addition and for at least 2 min after agonist addition (enough time for the fluorescence response to reach and then decline from the absolute maximum, agonist-induced signal attained). For each well, final relative fluorescence units (RFUs) are calculated as the difference between the maximum fluorescence signal obtained in the experiment after agonist addition and the signal level seen at baseline before agonist, but after antagonist, addition (the absolute minimum level of fluorescence signal observed in the 10 seconds prior to agonist addition). […] Data are fit to an ideal curve utilizing the 4-parameter sigmoid curve-fit function in GraphPad Prism software (version 4, GraphPad Software, Inc., San Diego, Calif., USA) from which an EC50 value is obtained. […] For each antagonist, at least three concentrations are tested. Dose Ratio values are then used to make a standard Schild plot—log [antagonist concentration] plotted against log [DR−1], see Kenakin reference above for theoretical background and method. A linear regression curve-fit is then performed on these plotted points. […] If these conditions are not met, then the antagonist is rerun in a pA2 assay using different antagonist concentrations until the above conditions are met.

T1 sequence (Q8NER1 whole entry): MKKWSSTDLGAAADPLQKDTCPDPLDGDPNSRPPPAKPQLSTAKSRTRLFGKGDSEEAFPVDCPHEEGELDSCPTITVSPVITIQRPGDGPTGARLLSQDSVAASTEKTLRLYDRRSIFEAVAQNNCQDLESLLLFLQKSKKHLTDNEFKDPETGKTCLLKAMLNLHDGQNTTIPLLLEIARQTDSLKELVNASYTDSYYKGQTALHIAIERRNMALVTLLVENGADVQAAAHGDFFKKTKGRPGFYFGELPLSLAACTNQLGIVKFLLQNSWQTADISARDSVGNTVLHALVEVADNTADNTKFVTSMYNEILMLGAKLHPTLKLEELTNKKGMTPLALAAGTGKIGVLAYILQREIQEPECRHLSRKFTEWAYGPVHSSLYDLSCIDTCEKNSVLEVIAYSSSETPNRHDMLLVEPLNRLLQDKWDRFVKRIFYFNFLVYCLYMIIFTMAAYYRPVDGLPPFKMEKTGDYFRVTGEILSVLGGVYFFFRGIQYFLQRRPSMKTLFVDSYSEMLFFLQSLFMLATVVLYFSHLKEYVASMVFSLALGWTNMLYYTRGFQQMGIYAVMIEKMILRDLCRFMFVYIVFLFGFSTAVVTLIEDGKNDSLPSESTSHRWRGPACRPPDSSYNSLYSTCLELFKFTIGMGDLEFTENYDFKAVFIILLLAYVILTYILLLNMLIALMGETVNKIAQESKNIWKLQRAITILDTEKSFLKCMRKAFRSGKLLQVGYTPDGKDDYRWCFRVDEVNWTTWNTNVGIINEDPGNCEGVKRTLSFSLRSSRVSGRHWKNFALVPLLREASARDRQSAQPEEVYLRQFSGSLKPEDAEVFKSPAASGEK

The term IC50 denotes the concentration needed to halve the response being measured. For the compound `CC(NC(=O)[C@@H]1COc2cc(C(C)(C)C)ccc2O1)c1ccc2[nH]ncc2c1` (single isomer, unassigned) [Compound 6], the IC50 at hVR1 [1] amounted to 103 nM.
Turning to `CC(C)(C)c1ccc2c(c1)OCC(C(=O)NCc1ccnc3ccccc13)O2` (centres unmarked) [Compound 1, 6-tert-butyl-N-(quinolin-4-ylmethyl)-2,3-dihydrobenzo[b][1,4]dioxine-2-carboxamide], the IC50 at hVR1 [2] is 240 nM; on hVR1 [1], 36 nM.
Consider `O=C(NCc1ccnc2ccccc12)C1=Cc2cc(Cl)ccc2OC1` [Compound 2, 6-Chloro-2H-chromene-3-carboxylic acid (Quinolin-4-ylmethyl)-amide], for which the IC50 at hVR1 [2] is 143 nM.
Still for that read-out and setting: for `O=C(NCc1ccnc2ccccc12)C1=Cc2cc(Br)ccc2OC1` [Compound 3, 6-Bromo-2H-chromene-3-carboxylic acid (quinolin-4-ylmethyl)-amide] the value was 128 nM; for `O=C(NCc1ccnc2ccccc12)C1=Cc2cc(OC(F)(F)F)ccc2OC1` [Compound 4, 6-Trifluoromethoxy-2H-chromene-3-carboxylic acid (quinolin-4-ylmethyl)-amide], 108 nM.
`CC(C)(C)c1ccc2c(c1)OC(C(=O)Nc1cnc3sc(CO)nc3c1)CO2` (centres unmarked) [Compound 8, 7-tert-Butyl-2,3-dihydro-benzo[1,4]dioxine-2-carboxylic acid (2-hydroxymethyl-thiazolo[5,4-b]pyridin-6-yl)-amide]: the IC50 on hVR1 [2] amounted to 8 nM. The compound further gave a Kb at hVR1 [3] of 14.5 nM.
At hVR1 [3], `CC(NC(=O)C1CCc2nc(C(C)(C)C(F)(F)F)ccc2C1)c1ccc2[nH]ncc2c1` (centres unmarked) [Compound 10, 2-(2,2,2-Trifluoro-1,1-dimethyl-ethyl)-5,6,7,8-tetrahydro-quinoline-6-carboxylic acid [1-(1H-indazol-5-yl)-ethyl]-amide] had a Kb of 4.32 nM. Besides, at hVR1 [1], the half-maximal inhibitory concentration (IC50) was determined as 8 nM.
For the compound `CC(NC(=O)[C@H]1COc2cc(C(F)(F)F)ccc2O1)c1ccc2[nH]ncc2c1` (stereo partly drawn) [Compound 13, (R)-6-Trifluoromethyl-2,3-dihydro-benzo[1,4]dioxine-2-carboxylic acid [1-(1H-indazol-5-yl)-ethyl]-amide], the Kb on hVR1 [3] was 37.4 nM. In addition, at hVR1 [1], the IC50 is 64 nM.
For orientation: inhibition means the relative decrease from the control value, in per cent. As for `CC(NC(=O)[C@@H]1COc2cc(C(F)(F)F)ccc2O1)c1ccc2[nH]ncc2c1` (stereo partly drawn) [Compound 14, (S)-6-Trifluoromethyl-2,3-dihydro-benzo[1,4]dioxine-2-carboxylic acid [1-(1H-indazol-5-yl)-ethyl]-amide], at hVR1 [1], the IC50 is 820 nM and the inhibition at 1 µM was 54%.
`O=C(Nc1cnc2sc(CO)nc2c1)[C@H]1COc2cc(C(F)(F)F)ccc2O1` [Compound 16, (R)-6-Trifluoromethyl-2,3-dihydro-benzo[1,4]dioxine-2-carboxylic acid (2-hydroxymethyl-thiazolo[5,4-b]pyridin-6-yl)-amide]: the IC50 at hVR1 [2] stood at 571 nM. Moreover, at hVR1 [3], the Kb is 422 nM.
For the compound `O=C(Nc1cnc2c(c1)COCC2)[C@H]1COc2cc(C(F)(F)F)ccc2O1` [Compound 17, (R)-6-Trifluoromethyl-2,3-dihydro-benzo[1,4]dioxine-2-carboxylic acid (7,8-dihydro-5H-pyrano[4,3-b]pyridin-3-yl)-amide], the IC50 at hVR1 [1] was 140 nM.
Turning to `C[C@@H](NC(=O)[C@@H]1CCc2nc(C(C)(C)C(F)(F)F)ccc2C1)c1cnn2c1OCCC2` [Compound 20, (R)-2-(2,2,2-Trifluoro-1,1-dimethyl-ethyl)-5,6,7,8-tetrahydro-quinoline-6-carboxylic acid [(R)-1-(6,7-dihydro-5H-pyrazolo[5,1-b][1,3]oxazin-3-yl)-ethyl]-amide], the IC50 at hVR1 [1] was found to be 310 nM.
`C[C@@H](NC(=O)[C@H]1CCc2nc(C(C)(C)C(F)(F)F)ccc2C1)c1cnn2c1OCCC2` [Compound 22, (S)—N—((R)-1-(6,7-dihydro-5H-pyrazolo[5,1-b][1,3]oxazin-3-yl)ethyl)-2-(1,1,1-trifluoro-2-methylpropan-2-yl)-5,6,7,8-tetrahydroquinoline-6-carboxamide] had a Kb at hVR1 [3] of 59.5 nM. The IC50 on hVR1 [1] worked out at 76 nM.
For `CC1(C(=O)Nc2cnc3sc(CO)nc3c2)CCc2nc(C(C)(C)C(F)(F)F)ccc2C1` (centres unmarked) [Compound 24, 6-Methyl-2-(2,2,2-trifluoro-1,1-dimethyl-ethyl)-5,6,7,8-tetrahydro-quinoline-6-carboxylic acid (2-hydroxymethyl-thiazolo[5,4-b]pyridin-6-yl)-amide], the IC50 at hVR1 [2] was found to be 121 nM. The compound also showed a Kb on hVR1 [3] of 69.2 nM.
Compound `C[C@@H](NC(=O)[C@@H]1COc2cc(C(F)(F)F)ccc2O1)c1ccc2[nH]ncc2c1` [Compound 25, (S)-6-Trifluoromethyl-2,3-dihydro-benzo[1,4]dioxine-2-carboxylic acid 1[(R)-1-(1H-indazol-5-yl)-ethyl]-amide] gave a Kb at hVR1 [3] of 188 nM. Besides, the IC50 at hVR1 [1] stood at 150 nM.
Taken in the same sequence, the figures for `C[C@@H](NC(=O)[C@H]1COc2cc(C(F)(F)F)ccc2O1)c1ccc2[nH]ncc2c1` [Compound 26, (R)-6-Trifluoromethyl-2,3-dihydro-benzo[1,4]dioxine-2-carboxylic acid [(R)-1-(1H-indazol-5-yl)-ethyl]-amide] were 22.5 nM and 93 nM.
